The assay relates to SpA BF changes during SpN stimulation. Description: Local lidocaine block of SpN stimulation-induced changes in splenic artery blood flow. The conditions noted are these: 2% lidocaine hydrochloride solution applied locally around the implanted SpN cuff. The class given is in vivo, pig. The method, then:
On the experimental day, the animal was sedated with ketamine (1.5 mg/kg) and midazolam (0.5 mg/kg) administered by intramuscular injection. An intravenous catheter was placed in one auricular vein, and anesthesia was induced by propofol (2 mg/Kg) administered intravenously. An endotracheal tube was placed, and anesthesia was maintained with sevoflurane inhalant combined with continuous rate infusion (CRI) of fentanyl (0.2 μg/Kg/min).
The surgical approach to SpN cuff implantation was as follows. The thoracolumbar junction was supported and slightly elevated using a sand bag. After appropriate surgical preparation (clipping and aseptic scrub with chlorhexidine gluconate and alcohol), the left flank was aseptically draped exposing a 20×25 cm area centered on the second to last rib. A 15 cm skin incision was made in the second to last intercostal space using monopolar electrocautery. The incision was continued through the subcutaneous tissues and intercostal musculature until the peritoneum was exposed. […]
By slight rotation of the splenic visceral base towards the operator, and placing gentle ventral traction on the spleen, the gastrosplenic ligament at the splenic hilum was incised using Metzembaum scissors, exposing the SpA. […] SpA blood flow readings were tested and finally the rib retractors were partially closed and the exposed incision covered with saline-soaked gauze sponges. […]

Structures can show the parent of a compound that is named as a salt.

Regarding `CCN(CC)CC(=O)Nc1c(C)cccc1C` [Lidocaine, lidocaine hydrochloride], the “effect on changes in SpA BF caused by SpN stimulation” value is “able to block the changes in SpA BF”.

The values are drawn from patent US12161869B2, “Treatment of disorders associated with inflammation” (Galvani Bioelectronics Limited, priority 2017, dated 2024).
